Columns and labels:
[1] = molecular target: T1, human 5-hydroxytryptamine-2C (h5-HT2C) receptor (Homo sapiens, UniProt P28335); assay: [125I]DOI binding to membranes of CHO cells expressing the human 5-HT2C receptor; conditions: [125I]DOI radioligand, CHO cell membranes, room temperature 60 min; read-out: 5-HT2C Affinity Ki
T1 construct: expressed in transfected cells; host or cells: CHO (Chinese Hamster Ovary) cells; membranes
T1 sequence (P28335 33-458): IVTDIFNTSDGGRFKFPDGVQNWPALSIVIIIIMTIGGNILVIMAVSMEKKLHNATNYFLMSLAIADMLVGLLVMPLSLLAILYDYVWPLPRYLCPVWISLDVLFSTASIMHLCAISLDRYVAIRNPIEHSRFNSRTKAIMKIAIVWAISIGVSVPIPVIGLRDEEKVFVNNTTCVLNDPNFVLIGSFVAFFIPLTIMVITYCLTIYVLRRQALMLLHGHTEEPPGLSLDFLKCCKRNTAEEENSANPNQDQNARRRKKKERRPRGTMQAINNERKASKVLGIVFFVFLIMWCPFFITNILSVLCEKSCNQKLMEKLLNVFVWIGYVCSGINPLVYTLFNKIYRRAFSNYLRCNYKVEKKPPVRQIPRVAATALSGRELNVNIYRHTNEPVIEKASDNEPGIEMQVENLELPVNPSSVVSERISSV

[2] = molecular target: T2, human 5-HT2C receptor (Homo sapiens, UniProt P28335); assay: 5-HT2C receptor-stimulated calcium mobilization (FLIPR) in CHO cells; assay type: cell-based; conditions: for EC50: calcium mobilization, CHO cells stably expressing human 5-HT2C, read-out: 5-HT2C Function EC50; for 5-HT2C Function Emax (%) / Emax: percentage of the response observed with a maximally effective concentration of 5-HT; for Emax: CHO, read-out: 5-HT2C Function Emax (%);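 for all read-outs here: Fluo-3-AM fluorescence read on FLIPR every 1 s, agonist added after 10 baseline reads, response taken as peak minus lowest raw fluorescence count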
T2 sequence (P28335 33-458): T1 sequence (P28335 33-458)

Ki [1] [nM] | EC50 [2] [nM] | 5-HT2C Function Emax (%) [2] [%] | Emax [2] [%] | Compound
24 | 294 | 50 | – | COc1ccc(-c2cccc3c2OC(CN)C3)cc1 (single isomer, unassigned; (-)) [Example 81, (−)-1-[7-(4-methoxyphenyl)-2,3-dihydro-1-benzofuran-2-yl]methanamine]
0.5 | 9 | – | 85 | NCC1Cc2cccc(-c3ccccc3C(F)(F)F)c2O1 (single isomer, unassigned; (-)) [Example 54, (−)-1-{7-[2-(trifluoromethyl)phenyl]-2,3-dihydro-1-benzofuran-2-yl}methanamine]
71 | 79 | 100 | – | CC(C)(C)c1cccc2c1OC(CN)C2 (single isomer, unassigned; (+)) [Example 26, (+)-1-(7-tert-butyl-2,3-dihydro-1-benzofuran-2-yl)methanamine]
1.6 | 467 | – | 70 | CNCC1Cc2cccc(-c3cccc(Cl)c3)c2O1 (racemic) [Example 416, (±)-[(N-methyl-1-[7-(3-chlorophenyl)-2,3-dihydro-1-benzofuran-2-yl]methanamine]
2 | 127 | – | 100 | COc1ccccc1-c1cccc2c1OC(CN)C2 (racemic) [Example 59, (±)-1-[7-(2-methoxyphenyl)-2,3-dihydro-1-benzofuran-2-yl]methanamine]
0.25 | 50 | – | 90 | NCC1Cc2cc(Cl)cc(-c3ccoc3)c2O1 (racemic) [Example 243, (±)-{[5-chloro-7-(3-furyl)-2,3-dihydro-1-benzofuran-2-yl]methyl}amine]
1.2 | 27 | – | 90 | CNCC1Cc2cc(OC)cc(-c3c(C)cccc3C)c2O1 (racemic) [Example 504, (±)-{[7-(2,6-dimethylphenyl)-5-methoxy-2,3-dihydro-1-benzofuran-2-yl]methyl}methylamine]
56 | 540 | – | 100 | NCC1Cc2cccc(-c3ccccc3)c2O1 (single isomer, unassigned; (-)) [Example 38, (−)-1-(7-phenyl-2,3-dihydro-1-benzofuran-2-yl)methanamine]
13 | 70 | – | 90 | COc1ccc(-c2cc(C(F)(F)F)cc3c2OC(CN)C3)c(OC)c1 (racemic) [Example 333, (±)-{[7-(2,4-dimethoxyphenyl)-5-(trifluoromethyl)-2,3-dihydro-1-benzofuran-2-yl]methyl}amine]
15 | 275 | – | 95 | NCC1Cc2cccc(-c3ccc(C(F)(F)F)cc3)c2O1 (racemic) [Example 82, (±)-1 {7-[4-(trifluoromethyl)phenyl]-2,3-dihydro-1-benzofuran-2-yl}methanamine]
0.74 | 4 | – | 100 | NCC1Cc2cc(Cl)cc(-c3cc(Cl)ccc3Cl)c2O1 (racemic) [Example 256, (±)-{[5-chloro-7-(2,5-dichlorophenyl)-2,3-dihydro-1-benzofuran-2-yl]methyl}amine]
11 | 225 | – | 70 | CNCC1Cc2cc(C)cc(-c3cccc(C)c3)c2O1 (racemic) [Example 478, (±)-{[7-(3-methylphenyl)-5-methyl-2,3-dihydro-1-benzofuran-2-yl]methyl}methylamine]
4.8 | 5 | – | 90 | CNCC1Cc2cc(F)cc(-c3ccccc3OC)c2O1 (racemic) [Example 443, (±)-{[5-fluoro-7-(2-methoxyphenyl)-2,3-dihydro-1-benzofuran-2-yl]methyl}methylamine]
4 | 39 | – | 95 | NCC1Cc2cc(F)cc(-c3ccccc3C(F)(F)F)c2O1 (racemic) [Example 108, (±)-1-{5-fluoro-7-[2-(trifluoromethyl)phenyl]-2,3-dihydro-1-benzofuran-2-yl}methanamine]
3 | 25 | – | 90 | NCC1Cc2cccc(-c3ccc(Cl)cc3)c2O1 (racemic) [Example 76, (±)-1-[7-(4-chlorophenyl)-2,3-dihydro-1-benzofuran-2-yl]methanamine]
4.4 | 251 | – | 70 | CNCC1Cc2cc(C)cc(-c3ccc(C)cc3)c2O1 (racemic) [Example 480, (±)-{[7-(4-methylphenyl)-5-methyl-2,3-dihydro-1-benzofuran-2-yl]methyl}methylamine]

Ki [1] [nM] | EC50 [2] [nM] | 5-HT2C Function Emax (%) [2] [%] | Emax [2] [%] | Compound
0.28 | 0.3 | 100 | – | NCC1Cc2cccc(-c3cc(Cl)ccc3Cl)c2O1 (single isomer, unassigned; (+)) [Example 164, (+)-{[7-(2,5-dichlorophenyl)-2,3-dihydro-1-benzofuran-2-yl]methyl}amine]
2.4 | 68 | – | 70 | CNCC1Cc2cc(F)cc(-c3ccccc3F)c2O1 (racemic) [Example 438, (±)-{[5-fluoro-7-(2-fluorophenyl)-2,3-dihydro-1-benzofuran-2-yl]methyl}methylamine]
7 | 504 | – | 80 | CNCC1Cc2cccc(-c3ccc(Cl)cc3)c2O1 (racemic) [Example 420, (±)-[(N-methyl-1-[7-(4-chlorophenyl)-2,3-dihydro-1-benzofuran-2-yl]methanamine]
1 | 241 | – | 100 | Cc1ccccc1-c1cc(F)cc2c1OC(CN)C2 (racemic) [Example 104, (±)-1-[5-fluoro-7-(2-methylphenyl)-2,3-dihydro-1-benzofuran-2-yl]methanamine]
25 | 3220 | – | 40 | NCC1Cc2c(F)c(F)cc(-c3ccccc3)c2O1 (racemic) [Example 109, (±)-(4,5-difluoro-7-phenyl-2,3-dihydro-1-benzofuran-2-yl)methylamine]
7.4 | 3800 | 60 | – | NCC1Cc2cccc(-c3ccc(C(F)(F)F)cc3)c2O1 (single isomer, unassigned; (-)) [Example 138, (−)-1-{7-[4-(trifluoromethyl)phenyl]-2,3-dihydro-1-benzofuran-2-yl}methanamine]
5 | 144 | – | 90 | COc1cccc(-c2cccc3c2OC(CN)C3)c1 (racemic) [Example 68, (±)-1-[7-(3-methoxyphenyl)-2,3-dihydro-1-benzofuran-2-yl]methanamine]
19 | 416 | – | 80 | NCC1Cc2cc(F)cc(-c3ccc(F)cc3)c2O1 (racemic) [Example 199, (±)-{[5-fluoro-7-(4-fluorophenyl)-2,3-dihydro-1-benzofuran-2-yl]methyl}amine]
21 | 8 | – | 90 | CNCC1Cc2cccc(-c3ccccc3OC)c2O1 (racemic) [Example 413, (±)-[(N-methyl-1-[7-(2-methoxyphenyl)-2,3-dihydro-1-benzofuran-2-yl]methanamine]
1.2 | 6 | – | 100 | Cc1cc2c(c(-c3ccccc3F)c1)OC(CN)C2 (racemic) [Example 283, (±)-{[7-(2-fluorophenyl)-5-methyl-2,3-dihydro-1-benzofuran-2-yl]methyl}amine]
22 | 200 | – | 80 | CNCC1Cc2cc(OC)cc(-c3ccccc3F)c2O1 (racemic) [Example 491, (±)-{[7-(2-fluorophenyl)-5-methoxy-2,3-dihydro-1-benzofuran-2-yl]methyl}methylamine]
5 | 250 | 100 | – | NCC1Cc2cccc(-c3cccc(Cl)c3)c2O1 (single isomer, unassigned; (+)) [Example 66, (+)-1-[7-(3-chlorophenyl)-2,3-dihydro-1-benzofuran-2-yl]methanamine]
5 | 79 | – | 90 | NCC1Cc2cc(Cl)cc(-c3cc(F)ccc3F)c2O1 (racemic) [Example 255, (±)-{[5-chloro-7-(2,5-difluorophenyl)-2,3-dihydro-1-benzofuran-2-yl]methyl}amine]
10 | 30 | – | 80 | COc1ccc(OC)c(-c2cc(F)cc3c2OC(CN)C3)c1 (racemic) [Example 223, (±)-{[7-(2,5-dimethoxyphenyl)-5-fluoro-2,3-dihydro-1-benzofuran-2-yl]methyl}amine]
12 | 636 | 80 | – | Cc1cc(Cl)ccc1-c1cccc2c1OC(CN)C2 (single isomer, unassigned; (-)) [Example 159, (−)-{[7-(4-chloro-2-methylphenyl)-2,3-dihydro-1-benzofuran-2-yl]methyl}amine]
0.8 | 20 | – | 90 | NCC1Cc2cc(Cl)cc(-c3ccccc3Cl)c2O1 (racemic) [Example 87, (±)-1-[5-chloro-7-(2-chlorophenyl)-2,3-dihydro-1-benzofuran-2-yl]methanamine]

Reference: patent US7435837B2, “Dihydrobenzofuranyl alkanamine derivatives and methods for using same” (Wyeth, priority 2003, dated 2008)
